Data taken from US9615577B2, “Herbicidally active cyclic dione compounds, or derivatives therefor, substituted by a phenyl which has an alkynyl-containing substituent” (Syngenta Limited, priority 2012, dated 2017).

Columns and labels:
Assay in all cases: Test 1B glasshouse assay for herbicidal activity, post-emergence
Assay type in all cases: in vivo
[1] = test system: Digitaria sanguinalis (DIGSA); conditions: 360 h; for pest or weed control at 60 g/ha: 60 g/ha application rate
Experimental: (§1) Seeds of a variety of monocotyledonous and dicotyledonous test plants are sown in standard soil in pots. The plants are cultivated for one day (for pre-emergence) or for about 12 days (range=10-13 days) (for post-emergence) under controlled conditions in a glasshouse (warm climate species at 24/18° C., cool climate species at 20/16° C., both at day/night; 16 hours light; 65% humidity).
(§2) An “instant formulation”, known as the “IF50”, containing 50 g/liter (i.e. 5% w/v) of the “technical” (i.e. unformulated) active ingredient is prepared by dissolving the active ingredient in a mixture of organic solvents and emulsifier, details of which are provided in the Table below. This IF50 is then mixed with a small, variable amount of acetone to aid dissolution, before addition of a 0.2% v/v aqueous solution of the adjuvant X-77 (which is a mixture of alkyl aryl polyoxyethylene glycols and free fatty acids in isopropanol, CAS Registry number 11097-66-8), as the aqueous diluent, to form an aqueous spray solution which contains a predetermined concentration of the active ingredient (which varies depending on the application rate of the active ingredient to the plants) and 0.2% v/v of the adjuvant X-77. This aqueous spray solution is then sprayed onto the plants, after one day's cultivation (for pre-emergence) or after about 12 days' cultivation (for post-emergence).
(§3) The test plants are then grown on, in a glasshouse (greenhouse) under controlled conditions (at either 24/18° C. or 20/16° C. (day/night) as mentioned above; 16 hours light; 65% humidity) and are watered twice daily. Either 15 days after application of the herbicide (15 DAA) (for post-emergence), or 20 days after application of the herbicide (20 DAA) (for pre-emergence), the test plants are evaluated visually, and an assessed percentage phytotoxicity score is given for each herbicidal application on each plant species (where 100%=total damage to plant; 0%=no damage to plant).
(§4) Warm climate (“warm season”) grassy monocotyledonous weeds: Setaria faberi (SETFA), SORVU (Sorghum bicolor (L.) Moench ssp. Bicolor, or Sorghum vulgare Pers.), Digitaria sanguinalis (DIGSA), Echinochloa crus-galli (ECHCG), and Brachiaria plantaginea (BRAPL).

[2] = test system: Brachiaria plantaginea (BRAPL); conditions: Urochloa plantaginea; for pest or weed control at 60 g/ha: 60 g/ha application rate
Experimental: as §1, §2, §3, §4

Setaria faberi (SETFA) = conditions: 360 h; for pest or weed control at 60 g/ha: 60 g/ha application rate
Experimental: as §1, §2, §3, §4

[3] = test system: Echinochloa crus-galli (ECHCG); conditions: for pest or weed control at 60 g/ha: 60 g/ha application rate
Experimental: as §1, §2, §3, §4
Note: The herbicidal activity data (e.g. post-emergence) shown above in Biological Example 1B for Comparator compounds X-9 and X-10 is thought likely to have been measured some years ago, probably using a variant of the above-described test method. Also, for the post-emergence activity of X-9 and X-10 it is not currently known exactly how many days after application of the herbicide the phytotoxicity on the plants was measured.

Avena fatua (AVEFA) = conditions: 360 h; for pest or weed control at 60 g/ha: 60 g/ha application rate
Experimental: as §1, §2, §3
(§5) Cool climate (“cool season”) grassy monocotyledonous weeds: Alopecurus myosuroides (ALOMY), Avena fatua (AVEFA), Lolium perenne (LOLPE).

Lolium perenne (LOLPE) = conditions: 360 h; for pest or weed control at 60 g/ha: 60 g/ha application rate
Experimental: as §1, §2, §3, §5

[4] = test system: Alopecurus myosuroides (ALOMY); conditions: 360 h; for pest or weed control at 60 g/ha: 60 g/ha application rate
Experimental: as §1, §2, §3, §5

[5] = test system: Glycine max (GLXMA, soybean); conditions: 360 h; for plant injury at 60 g/ha: 60 g/ha application rate
Experimental: as §1, §2, §3
Warm climate crop plants: Glycine max (GLXMA, soybean).

[6] = test system: Brassica napus (BRSNN, rape); conditions: 360 h; for plant injury at 60 g/ha: 60 g/ha application rate
Experimental: as §1, §2, §3
(§6) Cool climate crop plants: Triticum aestivum (TRZAW, winter wheat), Brassica napus (BRSNN, rape, also called oilseed rape or rapeseed), Beta vulgaris (BEAVA, sugar beet).

[7] = test system: Triticum aestivum (TRZAW, winter wheat); conditions: 360 h; for plant injury at 60 g/ha: 60 g/ha application rate
Experimental: as §1, §2, §3, §6

`Cc1cc(C)c(C2C(=O)C3CCC(C3)C2=O)c(C)c1` (stereo not shown) [Compound X-9, reference compound] gave a pest or weed control at 60 g/ha [1] of 70%, a pest or weed control at 125 g/ha ([1]; 125 g/ha application rate) of 80% and a pest or weed control at 60 g/ha [2] of 80%. It also gave a pest or weed control at 125 g/ha ([2]; 125 g/ha application rate) of 80%, a pest or weed control at 60 g/ha (Setaria faberi (SETFA)) of 80% and a pest or weed control at 125 g/ha (Setaria faberi (SETFA); 125 g/ha application rate) of 80%. It also gave a pest or weed control at 60 g/ha ([3]; Echinochloa crus-galli) of 40%, a pest or weed control at 125 g/ha ([3]; Echinochloa crus-galli, 125 g/ha application rate) of 60% and a pest or weed control at 60 g/ha (Avena fatua (AVEFA)) of 0%. It also gave a pest or weed control at 125 g/ha (Avena fatua (AVEFA); 125 g/ha application rate) of 0%, a pest or weed control at 60 g/ha (Lolium perenne (LOLPE)) of 0% and a pest or weed control at 125 g/ha (Lolium perenne (LOLPE); 125 g/ha application rate) of 40%. The pest or weed control at 60 g/ha [4] was 20%, the pest or weed control at 125 g/ha ([4]; 125 g/ha application rate) was 40% and the plant injury at 60 g/ha [5] was 0%. It also gave a plant injury at 125 g/ha ([5]; 125 g/ha application rate) of 0%, a plant injury at 60 g/ha [6] of 0% and a plant injury at 125 g/ha ([6]; 125 g/ha application rate) of 20%. For the same compound, the plant injury at 60 g/ha [7] was 0% and the plant injury at 125 g/ha ([7]; 125 g/ha application rate) was 0%.

`CCc1cc(C)cc(CC)c1C1C(=O)C2CCC(C2)C1=O` (stereo not shown) [Compound X-10, reference compound] gave a pest or weed control at 60 g/ha [1] of 100%, a pest or weed control at 60 g/ha [2] of 90% and a pest or weed control at 60 g/ha (Setaria faberi (SETFA)) of 100%. For the same compound, the “post-emergence activity on ECHCG compared with Compound A-5” value ([3]; 60 g/ha, probably a variant of the test method, days after application not known) was “lower post-emergence activity”, the pest or weed control at 60 g/ha ([3]; Echinochloa crus-galli) was 70% and the pest or weed control at 60 g/ha (Avena fatua (AVEFA)) was 50%. It also gave a pest or weed control at 60 g/ha (Lolium perenne (LOLPE)) of 70%, a pest or weed control at 60 g/ha [4] of 80% and a plant injury at 60 g/ha [5] of 0%. It also gave a plant injury at 60 g/ha [6] of 0% and a plant injury at 60 g/ha [7] of 20%.
